Assay results reported in PubChem BioAssay AID248 (DTP/NCI, 2004).
Where “and” joins values, the source holds several entries; their conditions need not be identical. Identical values can stand only once. Inconclusive results and toxic doses are left out. Cut-off read from the data, not from the text of the source: active = T/C of 150% or more; inactive = T/C below 125%.

Test system: L1210 leukemia ip in BDF1 mice, survival T/C
Assay: NCI In Vivo Anticancer Drug Screen. Data for tumor model L1210 Leukemia (intraperitoneal) in B6D2F1 (BDF1) mice
Conditions: endpoint: mean survival time, higher = longer survival
In short: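 Ratio derived from survival: compound-dosed mice over vehicle-dosed mice, all bearing a transplantable tumor.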

[1] = dose: 50.0 mg/kg/injection, schedule: Q01DX001 (ip), vehicle: carboxymethylcellulose (CMC)
[2] = dose: 100.0 mg/kg/injection, schedule: Q01DX001 (ip), vehicle: carboxymethylcellulose (CMC)
[3] = dose: 100.0 mg/kg/injection, schedule: Q01DX001 (ip), vehicle: saline
[4] = dose: 200.0 mg/kg/injection, schedule: Q01DX001 (ip), vehicle: carboxymethylcellulose (CMC)
[5] = dose: 200.0 mg/kg/injection, schedule: Q01DX001 (ip), vehicle: saline
[6] = dose: 400.0 mg/kg/injection, schedule: Q01DX001 (ip), vehicle: carboxymethylcellulose (CMC)
[7] = dose: 400.0 mg/kg/injection, schedule: Q01DX001 (ip), vehicle: saline
[8] = dose: 50.0 mg/kg/injection, schedule: Q01DX009 (ip), vehicle: saline with Tween-80
[9] = dose: 100.0 mg/kg/injection, schedule: Q04DX003 (ip), vehicle: saline with Tween-80
[10] = dose: 200.0 mg/kg/injection, schedule: Q04DX003 (ip), vehicle: saline with Tween-80
[11] = dose: 400.0 mg/kg/injection, schedule: Q04DX003 (ip), vehicle: saline with Tween-80
[12] = dose: 25.0 mg/kg/injection, schedule: Q01DX009 (ip), vehicle: saline
[13] = dose: 50.0 mg/kg/injection, schedule: Q01DX009 (ip), vehicle: saline
[14] = dose: 100.0 mg/kg/injection, schedule: Q01DX009 (ip), vehicle: saline
[15] = dose: 100.0 mg/kg/injection, schedule: Q04DX003 (ip), vehicle: saline
[16] = dose: 200.0 mg/kg/injection, schedule: Q04DX003 (ip), vehicle: saline
[17] = dose: 100.0 mg/kg/injection, schedule: Q01DX009 (ip), vehicle: saline with Tween-80
[18] = dose: 200.0 mg/kg/injection, schedule: Q01DX009 (ip), vehicle: saline with Tween-80
[19] = dose: 100.0 mg/kg/injection, schedule: Q01DX009 (ip), vehicle: Klucel (hydroxypropylcellulose) (HPC)
[20] = dose: 100.0 mg/kg/injection, schedule: Q04DX003 (ip), vehicle: Klucel (hydroxypropylcellulose) (HPC)
[21] = dose: 200.0 mg/kg/injection, schedule: Q04DX003 (ip), vehicle: Klucel (hydroxypropylcellulose) (HPC)
[22] = dose: 400.0 mg/kg/injection, schedule: Q04DX003 (ip), vehicle: Klucel (hydroxypropylcellulose) (HPC)
[23] = dose: 50.0 mg/kg/injection, schedule: Q01DX001 (ip), vehicle: saline
[24] = dose: 100.0 mg/kg/injection, schedule: Q01DX001 (ip), vehicle: saline with Tween-80

Measured: T/C

Cn1ncc2ccccc21
inactive: dose: 62.5 mg/kg/injection, schedule: Q01DX009 (ip), vehicle: other 101 % of control | dose: 125.0 mg/kg/injection, schedule: Q01DX009 (ip), vehicle: other 102 % of control | dose: 250.0 mg/kg/injection, schedule: Q01DX009 (ip), vehicle: other 93 % of control

COc1ccc2nc3cc(Cl)ccc3c(NCC3(c4ccccc4)CCN(C)CC3)c2c1
inactive: dose: 12.5 mg/kg/injection, schedule: Q04DX003 (ip), vehicle: saline 97 % of control | dose: 25.0 mg/kg/injection, schedule: Q04DX003 (ip), vehicle: saline 90 % of control

CCSCC1OC(n2cnc3c(N)ncnc32)CC1SCC (stereo not given)
inactive: [1] 104 % of control | [2] 104 % of control | [3] 98 % of control | [4] 111 % of control | [5] 89 % of control | [6] 101 % of control | [7] 92 % of control

COc1ccccc1C(=O)Nc1ccccc1SC
inactive: dose: 100.0 mg/kg/injection, schedule: Q04DX002 (ip), vehicle: Klucel (hydroxypropylcellulose) (HPC) 93 % of control | dose: 200.0 mg/kg/injection, schedule: Q04DX002 (ip), vehicle: Klucel (hydroxypropylcellulose) (HPC) 93 % of control | dose: 400.0 mg/kg/injection, schedule: Q04DX002 (ip), vehicle: Klucel (hydroxypropylcellulose) (HPC) 93 % of control

CC(=O)N(C)c1ccc(NC(=O)Nc2cccc(F)c2)cc1
inactive: dose: 12.5 mg/kg/injection, schedule: Q01DX009 (ip), vehicle: saline with Tween-80 104 % of control | dose: 25.0 mg/kg/injection, schedule: Q01DX009 (ip), vehicle: saline with Tween-80 105 % of control | [8] 96 % of control

CN(C)Cc1c(C=C(c2ccccc2)c2ccccc2)ccc2ccccc12
inactive: [1] 94 % of control | [2] 96 % of control | [4] 94 % of control | [6] 96 % of control

CC1COCCCCCC(=O)C1 (stereo not given)
inactive: [3] 91 % of control | [5] 107 % of control | [7] 107 % of control

O=C(O)/C=C/C=C/c1ccccc1
inactive: [9] 97 % of control | [10] 92 % of control | [11] 106 % of control

CCCCCCCCCCCCOc1ccc2ccccc2c1
inactive: [9] 97 % of control | [10] 95 % of control | [11] 108 % of control

CC(OC1OC(CO)C(OC2OC(CO)C(O)C(O)C2O)C(O)C1O)C1CC(O)C2C3CCC4=CC(=O)CCC4(C)C3CCC12C (stereo not given)
inactive: dose: 25.0 mg/kg/injection, schedule: Q04DX002 (ip), vehicle: saline 104 % of control | dose: 50.0 mg/kg/injection, schedule: Q04DX002 (ip), vehicle: saline 107 % of control | dose: 100.0 mg/kg/injection, schedule: Q04DX002 (ip), vehicle: saline 96 % of control

COc1cc(CC2c3ccccc3CC[N+]2(C)C)c(Oc2cc(CC3c4ccccc4CC[N+]3(C)C)ccc2OC)cc1OC (stereo not given)
inactive: dose: 0.78 mg/kg/injection, schedule: Q01DX009 (ip), vehicle: Klucel (hydroxypropylcellulose) (HPC) 103 % of control | dose: 1.56 mg/kg/injection, schedule: Q01DX009 (ip), vehicle: Klucel (hydroxypropylcellulose) (HPC) 97 % of control | dose: 3.13 mg/kg/injection, schedule: Q01DX009 (ip), vehicle: Klucel (hydroxypropylcellulose) (HPC) 100 % of control

O=S(=O)(CC12CC1(O)C1CCC2C1)c1ccccc1 (stereo not given)
inactive: [12] 104 % of control | [13] 104 % of control | [3] 108 % of control | [14] 93 % of control | [15] 103 % of control | [5] 103 % of control | [16] 100 % of control | [7] 107 % of control

Cc1ccc(N=Nc2ccc(C)cc2NC(=O)Nc2cccc(F)c2)cc1
inactive: [17] 90 % of control | [18] 90 % of control | dose: 400.0 mg/kg/injection, schedule: Q01DX009 (ip), vehicle: saline with Tween-80 98 % of control

CCC(C#N)c1ccccc1 (stereo not given)
inactive: [19] 103 % of control | [20] 110 % of control | dose: 200.0 mg/kg/injection, schedule: Q01DX009 (ip), vehicle: Klucel (hydroxypropylcellulose) (HPC) 92 % of control | [21] 119 % of control | dose: 400.0 mg/kg/injection, schedule: Q01DX009 (ip), vehicle: Klucel (hydroxypropylcellulose) (HPC) 103 % of control | [22] 96 % of control

CC(CCN1CCOCC1)(CNC1=NCCN1)c1cccc2ccccc12 (stereo not given)
inactive: dose: 5.0 mg/kg/injection, schedule: Q01DX009 (ip), vehicle: saline with Tween-80 100 % of control | dose: 10.0 mg/kg/injection, schedule: Q01DX009 (ip), vehicle: saline with Tween-80 96 % of control | dose: 20.0 mg/kg/injection, schedule: Q01DX009 (ip), vehicle: saline with Tween-80 103 % of control

O=c1[nH]c(=O)c2cccnc2[nH]1
inactive: dose: 3.12 mg/kg/injection, schedule: Q01DX009 (ip), vehicle: saline 109 % of control | dose: 6.25 mg/kg/injection, schedule: Q01DX009 (ip), vehicle: saline 107 % of control | dose: 12.5 mg/kg/injection, schedule: Q01DX009 (ip), vehicle: saline 115 % of control | dose: 25.0 mg/kg/injection, schedule: Q01DX001 (ip), vehicle: saline 100 % of control | [12] 108 % of control | [23] 105 % of control | [13] 100 % of control | [3] 98 % of control and 100 % of control | [14] 94 % of control | [5] 98 % of control and 100 % of control

NC(=S)N/N=C/c1cccc(/C=N/NC(N)=S)c1
inactive: [23] 98 % of control | [3] 93 % of control | [5] 93 % of control | [7] 93 % of control

O=C1CCCN1
inactive: [15] 92 % of control | [16] 97 % of control | dose: 400.0 mg/kg/injection, schedule: Q04DX003 (ip), vehicle: saline 92 % of control

O=C1N/C(=N\OCc2ccccc2Cl)CC(NOCc2ccccc2Cl)N1 (stereo not given)
inactive: [9] 91 % of control | [10] 97 % of control | [11] 95 % of control

O=C1C=Cc2c(ccc3c4c(ccc23)=CC(=O)C=C4)=C1
inactive: [24] 88 % of control | dose: 200.0 mg/kg/injection, schedule: Q01DX001 (ip), vehicle: saline with Tween-80 90 % of control | dose: 400.0 mg/kg/injection, schedule: Q01DX001 (ip), vehicle: saline with Tween-80 90 % of control

CCOP(=O)(OCC)C1C(C)N1C(=O)Nc1ccccc1 (stereo not given)
inactive: dose: 25.0 mg/kg/injection, schedule: Q01DX009 (ip), vehicle: Klucel (hydroxypropylcellulose) (HPC) 106 % of control | dose: 50.0 mg/kg/injection, schedule: Q01DX009 (ip), vehicle: Klucel (hydroxypropylcellulose) (HPC) 105 % of control | [19] 110 % of control | [20] 101 % of control | [21] 100 % of control | [22] 106 % of control

COc1cc(C=O)cc(C=O)c1O
inactive: dose: 25.0 mg/kg/injection, schedule: Q01DX001 (ip), vehicle: saline with Tween-80 96 % of control | dose: 50.0 mg/kg/injection, schedule: Q01DX001 (ip), vehicle: saline with Tween-80 104 % of control | [24] 90 % of control

NC(=O)c1ncn[nH]1
inactive: [8] 113 % of control | dose: 50.0 mg/kg/injection, schedule: Q04DX003 (ip), vehicle: saline with Tween-80 104 % of control | [17] 108 % of control | [9] 110 % of control | [18] 120 % of control | [10] 106 % of control
